In patent US20110021471A1, “REDUCING Abeta42 LEVELS AND Abeta AGGREGATION” (priority 2007, published 2011) one finds EC50 data, which are given here for one compound.

This experiment has as its system APP wild-type cells. Nature of the experiment: Aβ modulation in APP wild-type cells. It counts as cell-based. The following applies: APP wild-type cells; read-out: EC50, lowering of Aβ42. As for the experimental part: (A) and (B) The sequences of wildtype (WT; A) APP and the mutated substrate (B) containing the homologous region (italic, underlined) of the NOTCH transmembrane domain (TMD) in APP where GSMs are hypothesized to bind. […] Bottom row, FT-1 ([…]) raised Aβ42 200% in APP wild-type cells (A); however, in APP-NOTCH TMD cells (B), FT-1 caused minimal changes in the Aβ42 (95%) or Aβ40 (90%) signal. Data are presented as amyloid-β percentage of control±s.e.m., n=3.
FIG. 19. Substitution of human Notch sequence in the APP transmembrane domain (TMD) changes sensitivity to modulation. (A) Site-directed mutagenesis was used to exchange the analogous region of the human Notch TMD (bold and underlined) for a section (bold and underlined) of wild-type APP (APPwt) we have shown to be labeled by GSMs. The new substrate (APP-Notch TMD) is cleaved by γ-secretase primarily after valine and alanine residues corresponding to 40 and 42 in APPwt (arrows). […] The beginning (1) N-terminal amino acid (AA) to the ending C-terminal AA is shown above each peak, with the molecular weight (m/z) below. 1-40 and 1-42 are detected as the two major species in APP-Notch TMD conditioned media. It should be noted that the mutagenesis strategy to create APPNotch TMD led to a single AA deletion relative to APPwt. […] Both cell lines were treated (6 hours) with L-685,458 (10 μM), which is hypothesized to target the active site aspartate residues, media was collected, and analyzed for changes in Aβ levels. […]
To test the hypothesis that mutation of the GSM binding site in APP should alter sensitivity to GSMs, a portion of the GSM binding site in APP was exchanged with the analogous region of human NOTCH (FIGS. 18A and 18B; FIG. 19). […] Although the molecular weight and abundance of each chimeric peptide differed from amyloid-β peptides from APP, the main species produced from the APP-NOTCH TMD construct had identical C-termini to Ab1-40 and Ab1-42, and could be quantified by enzyme-linked immunosorbent assays (ELISAs; FIG. 19). […]

As to `O=C(O)c1cc(C=Cc2ccc(C=Cc3ccc(O)c(C(=O)O)c3)cc2)ccc1O` [X-34, 1,4-bis(3-carboxy-4-hydroxyphenylethenyl)-benzene], the EC50 worked out at 5.9 µM.

A word on the EC50: it is the concentration at which the effect is half-maximal.
